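Cultured in 96-well plates, cells were exposed to test compound for 48 hours across five concentrations. At the GI50, growth is halved. TGI: total growth inhibition.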
How the values were obtained:
Assay in all cases: NCI anticancer screen, dose series, 48 h
[1] = system: HCT-15 colon
[2] = system: SN12C renal
[3] = system: EKVX NSCLC
[4] = system: TK-10 renal
[5] = system: LOX IMVI melanoma
[6] = system: MDA-MB-435
[7] = system: OVCAR-4 ovarian
[8] = system: MDA-MB-468 breast
[9] = system: DU-145 prostate
[10] = system: UO-31 renal
[11] = system: SNB-75 CNS
[12] = system: NCI/ADR-RES ovarian
[13] = system: OVCAR-5 ovarian
[14] = system: RPMI-8226 leukemia
[15] = system: T-47D breast
[16] = system: CCRF-CEM leukemia
[17] = system: A498 renal
[18] = system: 786-0 renal
[19] = system: SK-MEL-5 melanoma
[20] = system: CAKI-1 renal
[21] = system: SW-620 colon
[22] = system: HOP-62 NSCLC
[23] = system: NCI-H23 lung
[24] = system: MALME-3M melanoma
[25] = system: SK-OV-3 ovarian
[26] = system: MDA-MB-231 breast
[27] = system: OVCAR-3 ovarian
[28] = system: UACC-257 melanoma
[29] = system: KM12 colon
[30] = system: HS 578T breast
[31] = system: SK-MEL-2 melanoma
[32] = system: COLO 205 colon
[33] = system: SF-539 CNS
[34] = system: MOLT-4 leukemia
[35] = system: HOP-92 NSCLC
[36] = system: RXF 393 renal
[37] = system: K-562 leukemia
[38] = system: PC-3 prostate
[39] = system: A549 NSCLC
[40] = system: MCF7 breast
[41] = system: SNB-19 CNS
[42] = system: NCI-H522 lung
[43] = system: M14 melanoma
[44] = system: NCI-H460 lung
[45] = system: BT-549 breast
[46] = system: IGROV1 ovarian
[47] = system: HCC-2998 colon
[48] = system: HT29 colon
[49] = system: U251 CNS
[50] = system: HL-60(TB) leukemia
[51] = system: SR leukemia
[52] = system: SK-MEL-28 melanoma
[53] = system: OVCAR-8 ovarian
[54] = system: SF-295 CNS
[55] = system: ACHN renal
[56] = system: HCT-116 colon
[57] = system: UACC-62 melanoma
[58] = system: SF-268 CNS
[59] = system: NCI-H226 lung

COc1cc2c3c(n(CCCn4ccnc4)c(=O)c2cc1OC)-c1nc2c(cc1C3=O)OCO2
GI50 [1]: 13.1 µM
TGI [1]: > 100 µM
GI50 [2]: 0.134 µM
TGI [2]: > 100 µM
GI50 [3]: > 66.4 µM
TGI [3]: > 100 µM
GI50 [4]: > 100 µM
TGI [4]: > 100 µM
GI50 [5]: 0.0448 µM
TGI [5]: 5.83 µM
GI50 [6]: 4.7 µM
TGI [6]: > 100 µM
GI50 [7]: > 100 µM
TGI [7]: > 100 µM
GI50 [8]: 0.028 µM
TGI [8]: 0.115 µM
GI50 [9]: 0.0616 µM
TGI [9]: > 100 µM
GI50 [10]: 0.197 µM
TGI [10]: > 100 µM
GI50 [11]: 0.03 µM
TGI [11]: > 100 µM
GI50 [12]: > 100 µM
TGI [12]: > 100 µM
GI50 [13]: > 36.7 µM
TGI [13]: > 100 µM
GI50 [14]: 0.852 µM
TGI [14]: > 100 µM
GI50 [15]: 0.0376 µM
TGI [15]: > 100 µM
GI50 [16]: 0.028 µM
GI50 [17]: > 100 µM
TGI [17]: > 100 µM
GI50 [18]: 0.105 µM
GI50 [19]: 0.07 µM
TGI [19]: 4.63 µM
GI50 [20]: 0.04 µM
TGI [20]: > 100 µM
GI50 [21]: 0.207 µM
TGI [21]: > 100 µM
GI50 [22]: 0.0339 µM
TGI [22]: > 100 µM
GI50 [23]: 0.0442 µM
TGI [23]: 11.3 µM
GI50 [24]: 13.1 µM
TGI [24]: > 100 µM
GI50 [25]: 0.0459 µM
TGI [25]: > 100 µM
GI50 [26]: 45.1 µM
TGI [26]: > 100 µM
GI50 [27]: 38.5 µM
TGI [27]: > 100 µM
TGI [28]: > 100 µM
GI50 [29]: > 100 µM
TGI [29]: > 100 µM
GI50 [30]: > 100 µM
TGI [30]: > 100 µM
GI50 [31]: > 100 µM
TGI [31]: > 100 µM
GI50 [32]: 12.6 µM
TGI [32]: > 100 µM
GI50 [33]: 0.0363 µM
TGI [33]: 0.525 µM
GI50 [34]: 0.0356 µM
TGI [34]: > 100 µM
GI50 [35]: > 47.1 µM
TGI [35]: > 100 µM
GI50 [36]: 0.335 µM
TGI [36]: > 100 µM
GI50 [37]: 0.0742 µM
TGI [37]: > 100 µM
GI50 [38]: 32.2 µM
TGI [38]: > 100 µM
GI50 [39]: 3.31 µM
TGI [39]: > 100 µM
GI50 [40]: 0.0247 µM
TGI [40]: 16.3 µM
GI50 [41]: 0.0685 µM
TGI [41]: > 100 µM
GI50 [42]: 1.07 µM
TGI [42]: 37.6 µM
GI50 [43]: 0.0554 µM
TGI [43]: > 69.3 µM
GI50 [44]: 0.0325 µM
TGI [44]: > 36.4 µM
GI50 [45]: 0.356 µM
TGI [45]: 26.3 µM
GI50 [46]: > 52 µM
TGI [46]: > 100 µM
GI50 [47]: 19.4 µM
TGI [47]: > 100 µM
GI50 [48]: 0.637 µM
TGI [48]: > 100 µM
GI50 [49]: 0.0621 µM
TGI [49]: > 100 µM
GI50 [50]: 0.0485 µM
TGI [50]: > 100 µM
GI50 [51]: 0.0274 µM
TGI [51]: 24.5 µM
GI50 [52]: > 100 µM
TGI [52]: > 100 µM
GI50 [53]: 0.803 µM
TGI [53]: > 100 µM
GI50 [54]: 0.0351 µM
TGI [54]: 12.8 µM
GI50 [55]: 0.0389 µM
GI50 [56]: 0.169 µM
TGI [56]: > 100 µM
GI50 [57]: 0.0359 µM
TGI [57]: > 100 µM
GI50 [58]: 0.0769 µM
TGI [58]: > 100 µM
GI50 [59]: 0.124 µM
TGI [59]: > 100 µM

— PubChem BioAssay (NCI)
